{"source": "ChEMBL document CHEMBL6078678", "about": "“Unveiling the Antimycobacterial Potential of Novel 4-Alkoxyquinolines: Insights into Selectivity, Mechanism of Action, and In Vivo Exposure” (J Med Chem, 2024)", "key": {"[1]": {"experiment": "(§1) Cytotoxicity against human HepG2 cells assessed as reduction in cell viability incubated for 72 hrs by MTT assay", "format": "toxicity, cell-based", "details": "HepG2 cells"}, "[2]": {"experiment": "(§2) Cytotoxicity against human HepG2 cells assessed as reduction in cell viability incubated for 72 hrs by neutral red uptake method", "format": "toxicity, cell-based", "details": "HepG2 cells"}, "[3]": {"experiment": "Aqueous solubility of compound in HCl at pH 1.2 incubated for 4 hrs by UHPLC-DAD analysis", "format": "physicochemical"}, "[4]": {"experiment": "Metabolic stability in rat liver microsomes assessed as half-life at 2 uM measured upto 30 mins in presence of NADPH by HPLC-MS/MS analysis", "format": "ADME, Microsome"}, "[5]": {"experiment": "Chemical stability of compound in 0.1 M HCl solution at pH 1.2 assessed as parent compound remaining at 10 uM measured after 24 hrs by HPLC-MS/MS analysis", "format": "physicochemical", "details": "read-out: Stability"}, "[6]": {"experiment": "Drug concentration in male CF1 mouse plasma at 300 mg/kg, po administered via gavage and measured after 1 hrs by UHPLC-DAD analysis", "format": "ADME, organism-based"}, "[7]": {"experiment": "Drug concentration in male CF1 mouse plasma at 300 mg/kg, po administered via gavage and measured after 0.75 hrs by UHPLC-DAD analysis", "format": "ADME, organism-based"}, "[8]": {"experiment": "Drug concentration in male CF1 mouse plasma at 300 mg/kg, po administered via gavage and measured after 4 hrs by UHPLC-DAD analysis", "format": "ADME, organism-based"}, "Staphylococcus aureus": {"system": "Staphylococcus aureus", "format": "functional", "details": "ATCC 25923, time 24 hrs"}, "[9]": {"experiment": "Elimination rate constant in male CF1 mouse at 300 mg/kg, po administered via gavage and measured after 8 hrs by UHPLC-DAD analysis", "format": "ADME, organism-based", "details": "in vivo"}, "[10]": {"experiment": "Drug concentration in male CF1 mouse plasma at 300 mg/kg, po administered via gavage and measured after […] by UHPLC-DAD analysis", "format": "ADME, organism-based", "details": "time 0.25 hrs"}, "[11]": {"system": "Mycobacterium tuberculosis", "format": "functional, H37Rv (ATCC 27294), RAW264.7", "details": "dose 5 µM; time 5 day"}, "[12]": {"experiment": "Permeability of compound at pH 7.4 at 10 uM measured after 5 hrs by PAMPA assay", "format": "ADME", "details": "read-out: permeability"}, "Escherichia coli": {"system": "Escherichia coli", "format": "functional", "details": "ATCC 25922, time 24 hrs"}, "Klebsiella pneumoniae": {"system": "Klebsiella pneumoniae", "format": "functional", "details": "time 24 hrs"}, "[13]": {"experiment": "(§3) Cytotoxicity against African green monkey Vero cells assessed as reduction in cell viability incubated for 72 hrs by MTT assay", "format": "toxicity, cell-based", "details": "chlorocebus sabaeus, Vero cells"}, "[14]": {"experiment": "Half-life in male CF1 mouse at 300 mg/kg, po administered via gavage and measured after 8 hrs by UHPLC-DAD analysis", "format": "ADME, organism-based", "details": "in vivo"}, "[15]": {"experiment": "Metabolic stability in rat liver microsomes assessed as intrinsic clearance at 2 uM measured upto 30 mins in presence of NADPH by HPLC-MS/MS analysis", "format": "ADME, Microsome", "details": "read-out: CLH"}, "[16]": {"experiment": "Drug concentration in male CF1 mouse plasma at 300 mg/kg, po administered via gavage and measured after 8 hrs by UHPLC-DAD analysis", "format": "ADME, organism-based"}, "Acinetobacter baumannii": {"system": "Acinetobacter baumannii", "format": "functional", "details": "time 24 hrs"}, "[17]": {"system": "Mycobacterium tuberculosis", "format": "functional, H37Rv (ATCC 27294), RAW264.7", "details": "dose 1 µM; time 5 day"}, "[18]": {"experiment": "Chemical stability of compound in PBS at pH 7.4 assessed as parent compound remaining at 10 uM measured after 24 hrs by HPLC-MS/MS analysis", "format": "physicochemical", "details": "read-out: Stability"}, "[19]": {"experiment": "Drug concentration in male CF1 mouse plasma at 300 mg/kg, po administered via gavage and measured after 0.5 hrs by UHPLC-DAD analysis", "format": "ADME, organism-based"}, "[20]": {"experiment": "Chemical stability of compound in 0.1M NH4HCO3 solution at pH 9.1 assessed as parent compound remaining at 10 uM measured after 24 hrs by HPLC-MS/MS analysis", "format": "physicochemical", "details": "read-out: Stability"}, "[21]": {"system": "Mycobacterium tuberculosis", "format": "functional, H37Rv (ATCC 27294), RAW264.7", "details": "dose 1 µM; time 5 day", "remark": "listed apart in the source"}, "[22]": {"system": "Mycobacterium tuberculosis", "experiment": "microbe, parasite or virus in culture", "details": "H37Rv (ATCC 27294)"}, "[23]": {"experiment": "(§4) Cytotoxicity against African green monkey Vero cells assessed as reduction in cell viability incubated for 72 hrs by neutral red uptake method", "format": "toxicity, cell-based", "details": "chlorocebus sabaeus, Vero cells"}, "HepG2 [24]": {"system": "HepG2", "experiment": "as §1", "format": "toxicity, cell-based", "details": "hepg2, 72 h"}, "[25]": {"experiment": "Aqueous solubility of compound in NH4HCO3 at pH 9.1 incubated for 4 hrs by UHPLC-DAD analysis", "format": "physicochemical", "details": "NH4HCO3, pH 9.1"}, "Vero [26]": {"system": "Vero", "experiment": "as §4", "format": "toxicity, cell-based", "details": "chlorocebus sabaeus, vero, 72 h"}, "Vero [27]": {"system": "Vero", "experiment": "as §3", "format": "toxicity, cell-based", "details": "chlorocebus sabaeus, vero, 72 h"}, "[28]": {"experiment": "Aqueous solubility of compound in PBS at pH 7.4 incubated for 4 hrs by UHPLC-DAD analysis", "format": "physicochemical"}, "HepG2 [29]": {"system": "HepG2", "experiment": "as §2", "format": "toxicity, cell-based", "details": "hepg2, 72 h"}}, "data": [{"smiles": "Cc1cc(OCCCNc2ccc(Cl)cc2)c2cc(Br)ccc2n1", "values": [{"measurement": "CC50 at 72 h", "setting": "[1]", "value": "> 20", "unit": "µM"}, {"measurement": "CC50 at 72 h", "setting": "[2]", "value": "> 20", "unit": "µM"}, {"measurement": "solubility at 4 h", "setting": "[3]", "value": "> 2470", "unit": "µM"}]}, {"smiles": "CCc1ccc(NCCCOc2cc(C)nc3ccc(Br)cc23)cc1", "values": [{"measurement": "half-life at 2 µM", "setting": "[4]", "value": 7, "unit": "min"}, {"measurement": "remaining at 24 h, 10 µM", "setting": "[5]", "value": 100, "unit": "%"}, {"measurement": "concentration at 1 h", "setting": "[6]", "value": 32.1, "unit": "µM"}, {"measurement": "concentration at 0.75 h", "setting": "[7]", "value": 15.7, "unit": "µM"}, {"measurement": "concentration at 4 h", "setting": "[8]", "value": 13.5, "unit": "µM"}, {"measurement": "MIC", "setting": "Staphylococcus aureus", "value": "> 20", "unit": "µM"}, {"measurement": "CC50 at 72 h", "setting": "[1]", "value": "> 20", "unit": "µM"}, {"measurement": "k el at 8 h", "setting": "[9]", "value": "4.44e-05", "unit": "s⁻¹"}, {"measurement": "concentration at […]", "setting": "[10]", "value": 7.49, "unit": "µM"}, {"measurement": "Activity", "setting": "[11]", "value": 4.1, "unit": "log10CFU"}, {"measurement": "Papp at 5 h, 10 µM", "setting": "[12]", "value": 0.2, "unit": "×10⁻⁶ cm/s"}, {"measurement": "MIC", "setting": "Escherichia coli", "value": "> 20", "unit": "µM"}, {"measurement": "MIC", "setting": "Klebsiella pneumoniae", "value": "> 20", "unit": "µM"}, {"measurement": "CC50 at 72 h", "setting": "[13]", "value": "> 20", "unit": "µM"}, {"measurement": "CC50 at 72 h", "setting": "[2]", "value": "> 20", "unit": "µM"}, {"measurement": "half-life", "setting": "[14]", "value": 4.3, "unit": "h"}, {"measurement": "CLint scaled at 2 µM", "setting": "[15]", "value": 58, "unit": "mL/min/kg"}, {"measurement": "concentration at 8 h", "setting": "[16]", "value": 9.8, "unit": "µM"}, {"measurement": "MIC", "setting": "Acinetobacter baumannii", "value": "> 20", "unit": "µM"}, {"measurement": "Activity", "setting": "[17]", "value": 3.9, "unit": "log10CFU"}, {"measurement": "remaining at 24 h, 10 µM", "setting": "[18]", "value": 5.3, "unit": "%"}, {"measurement": "solubility at 4 h", "setting": "[3]", "value": "> 2500", "unit": "µM"}, {"measurement": "concentration at 0.5 h", "setting": "[19]", "value": 11.1, "unit": "µM"}, {"measurement": "remaining at 24 h, 10 µM", "setting": "[20]", "value": 6, "unit": "%"}]}, {"smiles": "NNC(=O)c1ccncc1", "note": "[ISONIAZID]", "values": [{"measurement": "Activity", "setting": "[21]", "value": 2.25, "unit": "log10CFU"}]}, {"smiles": "COc1ccc2nc(C)cc(OCCCNc3ccc(I)cc3)c2c1", "values": [{"measurement": "CC50 at 72 h", "setting": "[1]", "value": 10.6, "unit": "µM"}, {"measurement": "MIC", "setting": "[22]", "value": 0.09, "unit": "µM"}, {"measurement": "CC50 at 72 h", "setting": "[23]", "value": 7.5, "unit": "µM"}, {"measurement": "CC50 at 72 h", "setting": "[13]", "value": 8.2, "unit": "µM"}, {"measurement": "CC50 at 72 h", "setting": "[2]", "value": 12.8, "unit": "µM"}, {"measurement": "solubility at 4 h", "setting": "[3]", "value": "> 2230", "unit": "µM"}]}, {"smiles": "CCc1ccc(NCCCOc2cc(CC)nc3ccc(Br)cc23)cc1", "values": [{"measurement": "CC50 at 72 h", "setting": "[1]", "value": "> 20", "unit": "µM"}, {"measurement": "MIC", "setting": "[22]", "value": 0.1, "unit": "µM"}, {"measurement": "CC50 at 72 h", "setting": "[23]", "value": 9.1, "unit": "µM"}, {"measurement": "CC50 at 72 h", "setting": "[13]", "value": "> 20", "unit": "µM"}, {"measurement": "CC50 at 72 h", "setting": "[2]", "value": 8.3, "unit": "µM"}]}, {"smiles": "Cc1cc(OCCCNc2ccc(Br)cc2)c2cc(Cl)ccc2n1", "values": [{"measurement": "CC50 at 72 h", "setting": "[1]", "value": 0.3, "unit": "µM"}, {"measurement": "MIC", "setting": "[22]", "value": 1.55, "unit": "µM"}, {"measurement": "CC50 at 72 h", "setting": "[13]", "value": "< 1", "unit": "µM"}]}, {"smiles": "CCc1ccc(NCCCOc2cc(C)nc3ccc(Cl)cc23)cc1", "values": [{"measurement": "CC50", "setting": "HepG2 [24]", "value": "Not_determined(Insoluble)"}, {"measurement": "solubility at 4 h", "setting": "[25]", "value": 0.37, "unit": "µM"}, {"measurement": "MIC", "setting": "[22]", "value": 0.03, "unit": "µM"}, {"measurement": "CC50", "setting": "Vero [26]", "value": "Not_determined(Insoluble)"}, {"measurement": "CC50", "setting": "Vero [27]", "value": "Not_determined(Insoluble)"}, {"measurement": "solubility at 4 h", "setting": "[28]", "value": 0.06, "unit": "µM"}, {"measurement": "CC50", "setting": "HepG2 [29]", "value": "Not_determined(Insoluble)"}, {"measurement": "solubility at 4 h", "setting": "[3]", "value": 200, "unit": "µM"}]}, {"smiles": "COc1ccc2nc(C)cc(OCCCNc3ccc(Br)cc3)c2c1", "values": [{"measurement": "CC50 at 72 h", "setting": "[1]", "value": 15.3, "unit": "µM"}, {"measurement": "MIC", "setting": "[22]", "value": 0.1, "unit": "µM"}, {"measurement": "CC50 at 72 h", "setting": "[23]", "value": 12.8, "unit": "µM"}, {"measurement": "CC50 at 72 h", "setting": "[13]", "value": "> 20", "unit": "µM"}, {"measurement": "CC50 at 72 h", "setting": "[2]", "value": 16.8, "unit": "µM"}, {"measurement": "solubility at 4 h", "setting": "[3]", "value": "> 2500", "unit": "µM"}]}, {"smiles": "CCc1ccc(NCCCOc2cc(C)nc3ccc(OC)cc23)cc1", "values": [{"measurement": "MIC", "setting": "[22]", "value": 0.06, "unit": "µM"}, {"measurement": "solubility at 4 h", "setting": "[3]", "value": 2650, "unit": "µM"}]}]}
